Some results are limits rather than exact numbers.

Experimental findings from a melting point compilation (Tetko et al.; mined from patent text by program, amines drawn as free bases though some values may be those of a salt) are described below.

For orientation: melting point means the temperature, or range, at which the solid turns liquid. In turn, `CCN(Cc1cc(Br)ccc1OCc1ccccc1)c1ccc(C(=O)NCc2cccnc2)cc1` displayed a melting point of 119 to 121 °C.
For the molecule `CNS(=O)(=O)Nc1cc(-c2nn(C)c(OC(F)F)c2Cl)c(Cl)cc1Cl`, the melting point was 133 °C.
In the case of `CCCSc1cc(C(=O)O)cc(S(N)(=O)=O)c1Oc1ccccc1` it was 209 to 210 °C; in that of `CCc1nc2c(N)nc3ccccc3c2n1CCCCS(=O)(=O)NCc1ccc(OC)cc1`, 176 to 177 °C.
Molecule `Cc1cc(C(C#N)=CN(C)C)ccn1` showed a melting point of 126 °C.
In the case of `CC(=C1SC(=O)NC1=O)c1ccc(OCCOc2c(-c3ccc(F)cc3)n(C)c3ccc(F)cc3c2=O)cc1` it was 245 to 248 °C.
Molecule `Cc1ccc2oc(=O)c(NC(=O)Nc3ccc(F)cc3F)c(-c3ccccc3Cl)c2c1` came in with a melting point of 214 to 215 °C.
`CCCn1nc2c(N)nc3ccccc3c2c1CC1(O)CCC1` came in with a melting point of 191 to 193 °C.
Next, `C#CCNC(=C[N+](=O)[O-])NCCSCc1ncccc1Cl`: 171 to 172 °C; `NC(=O)COC(=O)c1c(F)cccc1F`: 108 to 110 °C; `Cc1cc2c(cc1C)-n1ccc(=O)nc1CC(c1ccc(-n3c(C)nc4cnccc43)cc1)=N2`: 192 to 194 °C.
As for `NS(=O)(=O)c1ccc(-c2[nH]c3ccccc3c2-c2ccc(F)cc2)cc1`, the melting point was 228 to 230 °C.
In the case of `CCOC(=O)c1cn(C)c2nc3cc(F)c(F)cc3cc2c1=O` it was 323 to 324 °C; in that of `CCOC(Cc1ccc2oc(Cc3nc(-c4ccccc4)oc3C)cc2c1)C(N)=O` (centres undefined), 165 to 168 °C.
The molecule `CC1(O)CCC2C3CCC45OC4(C)C(O)=C(C#N)CC5(C)C3CCC21C` (centres undefined) registered a melting point of 170 to 171 °C.
In the case of `c1cnc2[nH]cc(CN3CCc4ccc(-c5ccsc5)cc4C3)c2c1` it was 228 to 230 °C; in that of `Cc1c(Cc2cccnc2)sc2cc(C(=O)O)ccc12`, 248 to 249 °C; in that of `CC(C)(C)OC(=O)N1Cc2ccccc2CN1CC(O)C(Cc1ccccc1)NC(=O)OCc1ccccc1` (centres undefined), 68 to 71 °C.
Next, `O=C(c1ccc(F)cc1F)N1CCc2cc(S(=O)(=O)N3CC(c4ccccc4)NC3=O)ccc21` (centres undefined): 128 °C; `CCCn1nnn(-c2cc(O)c(F)cc2F)c1=O`: 65 to 67 °C; `O=c1c2c(c3cccnc3n1-c1ccccc1)OCC(O)C2` (centres undefined): 296 to 298 °C.
Molecule `Cc1c(C(=O)N2C[C@@H](C)N[C@@H](C)C2)c2ccccc2n2cnc(C(=O)OC(C)(C)C)c12` registered a melting point of 228 to 232 °C.
In the case of `CCCCN1CCC(N(Cc2ccc(Nc3ccnc4ccccc34)cc2)C(C)=O)CC1` it was 85 to 105 °C; in that of `COc1ccc(-c2cnc3cc4[nH]ncc4cc3n2)cc1F`, more than 250 °C.
Next, `Cc1ccc(S(=O)(=O)OCCCC2CCN(C(=O)OCc3ccccc3)CC2)cc1`: 59 to 60 °C.
In the case of `CC(C)C=CC(CC1CCCCC1)NC(=O)OC(C)(C)C` (racemic) it was 74 °C.
On to `COc1cc(O)c2c(=O)c(OC)c(-c3ccc(O)cc3)oc2c1`, for which the melting point was in the range of 252 to 253 °C.
The molecule `CCOC(=O)C1(c2ccccc2)CCN(C2CCC(C#N)(c3ccccn3)CC2)CC1` (centres undefined) yielded a melting point of 157 °C.
In the case of `CCOC(=O)C1C(N(C)C(=O)C(F)(F)F)C(=O)N1c1ccc(OC)cc1` (centres undefined) it was 102 to 104 °C.
Next, `CC(C)n1c(=O)cc(C(F)(F)F)[nH]c1=O`: 127 to 129 °C; `CC(=O)c1sc(Oc2ccc3c(c2)OCO3)c2c1CCc1cnn(C)c1-2`: 102 to 103 °C.
As for `C[C@H](O)c1nnc(-c2ccc3occ(-c4cc(F)ccc4Cl)c3c2)o1`, the melting point was 204 to 205 °C.
Turning to `CC(=O)OCCCc1cc(C=C2SCN(C)C2=O)cc(CCCOC(C)=O)c1O`, the melting point was 112 to 116 °C.
In the case of `Cc1c(C(F)(F)F)noc1OCC(=O)O`, the melting point was in the range of 73.5 to 76 °C.
Next, `CC(CC(F)(F)C(F)(F)C(F)(F)C(F)(F)C(F)(F)C(F)(F)CC(C)C(=O)O)C(=O)O` (centres undefined): 150 to 151 °C; `CC(C)Oc1ccc(CCCOc2cc(CCC(=O)O)n(C(C)C)n2)c(Oc2ncc(C(F)(F)F)cc2Cl)c1`: 128 °C.
In the case of `COc1ccc(CC#N)c(C)c1OC` it was 60 to 63 °C.
Next, `CCCc1c(OCC(O)CSc2ccc(C(=O)CCC(=O)O)cc2)ccc(C(C)=O)c1O` (centres undefined): 115 to 116 °C.
In turn, `Cn1cc2c(C3C(=O)Nc4ccc(Br)cc43)nc(Cl)nc2n1` (centres undefined) gave a melting point of more than 300 °C.
With `Cc1cccc(I)c1C(=O)NC(C)(C)CS(C)(=O)=O`, the melting point is 134 to 136 °C.
Turning to `CCOC(=O)c1c(S(N)(=O)=O)c2ccccc2n1CC`, the melting point was 148 to 149 °C.
In the case of `Cc1cccc(C)c1N1CC(C)N(c2cccc(C(F)(F)F)c2)C1=N` (centres undefined) it was 160 to 166 °C; in that of `CSC(Nc1cc(Cl)cc(Cl)c1)=C(C#N)S(=O)(=O)c1ccc(Cl)cc1`, 128 to 131 °C.
For `Cc1c(C(=O)Nc2ccc(OCC(C)(C)C)c(C#N)c2)cnn1-c1ccc(F)cc1`, the melting point lay in the range of 126 to 127 °C.
The molecule `FC(F)(F)c1ccc(-c2ccnc(Oc3ccc4cccnc4c3)c2)cc1` gave a melting point of 156 to 158 °C.
In the case of `O=C(c1c(-c2cc(Cl)cc(Cl)c2)[nH]c2c(Cl)cc(Cl)cc12)C(F)(F)F` it was 214 to 216 °C; in that of `C=CCN(CC=C)c1nc(NC(=O)OCc2ccccc2)n2oc(=O)nc2n1`, 171 to 173 °C.
For the molecule `CCCOc1ccc(OCC(O)CNCCNc2c(C)cccc2C)cc1` (centres undefined), the melting point was 51 to 54 °C.
Next, `CCOC(=O)c1cnn(-c2ccc(N)cc2)c1C(F)(F)F`: 102 to 103 °C.
The molecule `CC12CCC(O)CC1=CC(O)C1C2CCC2(C)C(O)C(O)CC12` (centres undefined) returned a melting point of 217 to 221 °C.
In the case of `CC(C)n1nc(-c2c(-c3ccccc3)oc(=O)n2C(C)C(=O)O)ccc1=O` (centres undefined) it was 173 to 175 °C; in that of `CCCN=C(NCCC)c1cc(Cl)ccc1[N+](=O)[O-]`, 63 to 64 °C.
In the case of `O=C1c2nccnc2C(=O)N1c1ccc2ccc(O)nc2n1` it was 373 °C.
In the case of `CN(C)C(=S)C(O)c1ccccc1C(F)(F)F` (centres undefined) it was 112 to 115 °C; in that of `CSc1c(C#N)nn(-c2c(Br)cc(C(F)(F)F)cc2Br)c1N`, 211 to 214 °C.
Molecule `COc1ccc2c(CCNCC#N)c[nH]c2c1` yielded a melting point of 80 °C.
In the case of `CN(C)c1ccc(-c2cccc3c2C2(COc4cc5c(cc42)CCO5)C(=O)N3Cc2ccc(C(F)(F)F)o2)cn1` (centres undefined) it was 223 to 225 °C; in that of `COc1ccc2c(=O)c(CSC)cn(C)c2c1`, 135 to 136 °C; in that of `N#CC1=C(c2ccccc2)Nc2n[nH]cc2C1c1cccc(C(F)(F)F)c1Cl` (centres undefined), more than 250 °C.
`N#Cc1ccc(OCCc2cccc(F)c2)cc1` registered a melting point of 79 to 81 °C.
Consider `CC(C)(NC(=O)CCS)C(=O)O`, for which the melting point lay in the range of 169 to 170 °C.
Next, `c1cc(-c2nc(COC3CCCCO3)no2)sc1CN1CCCCCC1` (centres undefined): 79 to 81 °C; `Nc1cccc(-c2ccc(CCN3CC4C(C3)C4NC(=O)Nc3ccccc3)cc2)n1` (centres undefined): 192 to 194 °C.
Regarding `Cc1c(C)c2c(c(C)c1N)C(c1ccc(C(C)C)cc1)C1(CCCC1)O2` (centres undefined), the melting point lay within 132 to 133 °C.
`O=C(O)CCCCCCNS(=O)(=O)c1ccccc1` gave a melting point of 75 to 77 °C.
`FC(F)(F)Oc1ccc(-c2nccc(Cl)n2)cc1`: the melting point lay within 70 to 73 °C.
Next, `COc1ccc(CNc2nnc(Cl)c3ccc([N+](=O)[O-])cc23)cc1Cl`: 217 to 218 °C; `CCCCc1nc(C(=O)O)c(C(=O)O)[nH]1`: 261 to 263 °C; `COc1ccc([C@H]2Cc3c(cccc3[N+](=O)[O-])NC(=O)[C@H]2O)cc1` (relative stereo): 198 to 200 °C.
Molecule `O=C(c1ccc(-c2ccc(Cl)cc2)cc1)N1CCCc2cc(C=CCN3CCCCC3)ccc21` showed a melting point of 141 to 143 °C.
Next, `COC(=O)CC[C@H](NC(=O)c1cc(CCC2CNc3nc(N)nc(O)c3C2)c[nH]1)C(=O)OC` (some centres undefined): 151 to 153 °C.
In the case of `CCc1nsc(NC(=O)C(C)c2ccc3oc(-c4c(Cl)cccc4Cl)nc3c2)c1Cl` (centres undefined) it was 180 to 183 °C.
Next, `CN=C(NC#N)S(C)=O` (centres undefined): 116 °C.
`Cc1ccc2c(c1)c1c(n2CCBr)C(=O)CCC1` displayed a melting point of 102 to 103 °C.
Take `O=C(c1c[nH]c2cc(C(F)(F)F)ccc12)C(F)(F)F`: the melting point lay in the range of 250 to 251 °C.
Next, `C[C@H]1CCCN(C(=O)[C@@H]2Cc3cc(-c4ccccc4)ccc3N2c2ccc(=O)n(C)n2)C1`: 204 to 206 °C; `CCCCCCCCCCCOc1cccc(CCCC(N)(CO)CO)c1`: 71 to 72 °C; `Nc1c(-c2ccc(Br)cc2)nc2ccc(F)cc2c1C(=O)O`: 231 to 233 °C.
As for `CCc1cnc2ccnn2c1O`, the melting point lay within 247 to 248 °C.
`O=[N+]([O-])c1ccc(C=COC=Cc2ccc([N+](=O)[O-])cc2)cc1` returned a melting point of 59 to 61 °C.
In the case of `CON(C)C(=O)c1cc(Br)cnc1N1CCCC1` it was 94 to 96 °C.
In the case of `O=C(NCC(C(=O)Nc1n[nH]c(=S)s1)c1ccccc1)OCc1ccccc1` (centres undefined) it was 201 to 202 °C.
`O=C(O)c1ccc(C=Cc2cc(=O)cc(-c3ccccc3)o2)cc1`: the melting point was more than 300 °C.
In the case of `O=C(O)CCc1ccc(O)c(C=Nc2cc(S(=O)(=O)O)ccc2O)c1` it was more than 275 °C.
As to `CON=C(C(=S)OC)c1ccccc1COc1ccccc1Cl`, the melting point fell in the range of 58 to 60 °C.
The molecule `Cn1c2c(c3cccc(OCc4ccccc4)c31)C(=O)NCC2` returned a melting point of 199 to 201 °C.
On to `NCC1CCN(c2c(F)cc3c(=O)c(C(=O)O)cn(C4CC4)c3c2F)C1` (centres undefined), for which the melting point lay within 232 to 235 °C.
`Cn1c(=O)c2cnc(-c3ccccc3)nc2n(C)c1=O` gave a melting point of 279 to 281 °C.
`CCCc1nc2cnc3ccccc3c2n1CCCCNS(C)(=O)=O`: the melting point was 133 to 135 °C.
